# ChEMBL document CHEMBL1201862, “PubChem BioAssay data set” (2004)
# Active and inactive are the calls of the source.
# Legend:
# [1] = biological target: T1, Heat shock factor protein 1 (Mus musculus, UniProt P38532); test: enhancement of HSF1-driven luciferase signal – cell-based, NIH3T3, luminescence, dose retest, confirmation (AID 435004); type: functional;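 further: stress induced by proteasome inhibitor MG132 added 30 min after compound; luciferase reporter driven by HSF1 response element in NIH3T3 cells; actives raise luminescence as potentiators of the MG132 stress response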
# T1 sequence (P38532 whole entry): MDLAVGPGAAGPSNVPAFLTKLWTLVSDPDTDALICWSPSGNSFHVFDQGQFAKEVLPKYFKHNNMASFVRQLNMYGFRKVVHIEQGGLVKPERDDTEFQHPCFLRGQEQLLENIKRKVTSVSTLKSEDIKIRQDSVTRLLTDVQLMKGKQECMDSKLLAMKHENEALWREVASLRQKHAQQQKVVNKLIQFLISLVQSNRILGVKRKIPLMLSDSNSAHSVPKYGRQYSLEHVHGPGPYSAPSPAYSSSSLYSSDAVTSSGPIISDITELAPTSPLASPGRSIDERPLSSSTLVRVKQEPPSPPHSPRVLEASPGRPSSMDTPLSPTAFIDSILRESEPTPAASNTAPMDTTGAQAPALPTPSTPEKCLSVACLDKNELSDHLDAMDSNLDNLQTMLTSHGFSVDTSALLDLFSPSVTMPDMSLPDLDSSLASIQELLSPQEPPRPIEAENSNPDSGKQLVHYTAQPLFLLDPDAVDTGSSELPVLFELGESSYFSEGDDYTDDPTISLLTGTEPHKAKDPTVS
# [2] = biological target: T2, RNA-binding protein pos-1 (Caenorhabditis elegans, UniProt G5EF15); test: disruptors of C. elegans POS-1 RNA interaction – biochemical, fluorescence polarization, dose response (AID 1964);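 further: purified POS-1 fused to maltose binding protein made in E. coli; potency of compounds blocking POS-1 binding to fluorescent RNA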
# T2 sequence (G5EF15 whole entry): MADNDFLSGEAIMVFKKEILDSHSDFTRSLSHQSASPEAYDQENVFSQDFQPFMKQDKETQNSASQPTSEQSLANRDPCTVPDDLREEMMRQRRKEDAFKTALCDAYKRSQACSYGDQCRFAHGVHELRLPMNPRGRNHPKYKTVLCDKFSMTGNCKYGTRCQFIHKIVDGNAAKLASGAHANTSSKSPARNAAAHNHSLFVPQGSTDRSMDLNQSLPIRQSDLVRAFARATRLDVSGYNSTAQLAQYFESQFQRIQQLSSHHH
# [3] = biological target: T3, Zinc finger protein mex-5 (Caenorhabditis elegans, UniProt Q9XUB2); test: potency of MEX-5 RNA-binding blockers – biochemical, C. elegans, fluorescence polarization, dose response (AID 1960)
# T3 sequence (Q9XUB2 whole entry): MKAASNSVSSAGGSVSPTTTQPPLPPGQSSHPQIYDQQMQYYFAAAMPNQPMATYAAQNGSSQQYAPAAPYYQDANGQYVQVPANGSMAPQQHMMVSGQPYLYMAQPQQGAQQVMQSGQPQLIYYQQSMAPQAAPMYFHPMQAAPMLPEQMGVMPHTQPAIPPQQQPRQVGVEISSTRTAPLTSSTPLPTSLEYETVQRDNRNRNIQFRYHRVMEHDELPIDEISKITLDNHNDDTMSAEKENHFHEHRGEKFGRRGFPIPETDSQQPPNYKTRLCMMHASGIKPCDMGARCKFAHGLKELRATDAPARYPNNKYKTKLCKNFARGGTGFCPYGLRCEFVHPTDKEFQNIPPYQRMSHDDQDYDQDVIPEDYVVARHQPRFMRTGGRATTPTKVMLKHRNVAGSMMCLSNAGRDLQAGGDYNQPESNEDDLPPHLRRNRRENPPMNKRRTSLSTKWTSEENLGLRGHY
# Cytochrome P450 3A4 = Cytochrome P450 3A4 (Homo sapiens, UniProt P08684);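 further: CYP3A4 tested as one member of a cytochrome P450 panel screen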
# Cytochrome P450 2C19 = Cytochrome P450 2C19 (Homo sapiens, UniProt P33261); test: Cytochrome panel assay with activity outcomes. Panel member name: p450-cyp2c19 Compounds with AC50 equal or less than 10 uM are considered active; type: functional
# [4] = Trypanosoma cruzi growth suppression in host cells – NIH3T3 host cells, beta-gal luminescence, confirmation (AID 2044); type: functional, cell-based;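 further: intracellular parasites grown in NIH/3T3 mouse fibroblasts as host cells; luminescent beta-galactosidase reporter signal from transgenic T. cruzi replicating inside host cells; inhibitors lower the luminescence signal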
# [5] = NIH3T3 cell viability loss – ATP luminescence, mouse fibroblasts, counter-screen, dose response (AID 2010); type: functional, cell-based;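 further: cells exposed to compound for about 90 hours before reading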
# [6] = test system: Streptococcus sp. 'group A'; test: Streptococcus pyogenes SK(-)GAS viability under kanamycin – luminescence, BacTiterGlo, confirmation, counter-screen for streptokinase expression inhibitor project, dose response (AID 1900); type: functional, organism-based
# Streptococcus = test: GAS UMAA2166 growth inhibition – luminescence, BacTiterGlo, counter-screen for streptokinase expression inhibitor project, dose response (AID 1915); type: functional, organism-based;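 further: potency for reduction of bacterial viability or growth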
# [7] = biological target: T4, Corticotropin-releasing factor receptor 2/Corticotropin-releasing factor-binding protein (Homo sapiens, UniProt P24387+Q13324); test: activators of CRF receptor 2 with binding protein – uHTS hits, confirmation (AID 602473); type: functional; settings: read-out: EC50_Mean
# T4 sequence (Q13324 whole entry): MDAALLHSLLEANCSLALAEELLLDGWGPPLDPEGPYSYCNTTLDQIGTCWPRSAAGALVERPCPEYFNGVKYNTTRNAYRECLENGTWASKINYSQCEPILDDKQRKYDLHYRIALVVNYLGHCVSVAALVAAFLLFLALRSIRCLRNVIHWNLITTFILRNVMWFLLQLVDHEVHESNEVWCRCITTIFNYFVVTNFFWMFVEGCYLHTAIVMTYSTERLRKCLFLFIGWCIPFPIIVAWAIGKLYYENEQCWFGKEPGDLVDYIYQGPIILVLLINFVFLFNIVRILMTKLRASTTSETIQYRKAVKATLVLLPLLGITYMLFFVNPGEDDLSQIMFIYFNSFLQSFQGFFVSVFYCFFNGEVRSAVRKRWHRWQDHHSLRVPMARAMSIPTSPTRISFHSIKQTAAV
# T4 sequence (P24387 whole entry): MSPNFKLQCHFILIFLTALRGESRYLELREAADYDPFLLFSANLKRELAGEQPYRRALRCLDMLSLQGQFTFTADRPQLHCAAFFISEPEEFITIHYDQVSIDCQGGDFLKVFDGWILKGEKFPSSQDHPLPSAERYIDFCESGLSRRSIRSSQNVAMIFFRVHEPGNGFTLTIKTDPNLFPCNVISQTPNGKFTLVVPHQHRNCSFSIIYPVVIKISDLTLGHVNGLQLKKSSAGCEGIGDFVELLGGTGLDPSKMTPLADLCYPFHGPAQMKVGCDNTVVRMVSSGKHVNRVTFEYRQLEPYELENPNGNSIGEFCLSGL
# Chain of Cytochrome P450 2C19 (P33261 whole entry): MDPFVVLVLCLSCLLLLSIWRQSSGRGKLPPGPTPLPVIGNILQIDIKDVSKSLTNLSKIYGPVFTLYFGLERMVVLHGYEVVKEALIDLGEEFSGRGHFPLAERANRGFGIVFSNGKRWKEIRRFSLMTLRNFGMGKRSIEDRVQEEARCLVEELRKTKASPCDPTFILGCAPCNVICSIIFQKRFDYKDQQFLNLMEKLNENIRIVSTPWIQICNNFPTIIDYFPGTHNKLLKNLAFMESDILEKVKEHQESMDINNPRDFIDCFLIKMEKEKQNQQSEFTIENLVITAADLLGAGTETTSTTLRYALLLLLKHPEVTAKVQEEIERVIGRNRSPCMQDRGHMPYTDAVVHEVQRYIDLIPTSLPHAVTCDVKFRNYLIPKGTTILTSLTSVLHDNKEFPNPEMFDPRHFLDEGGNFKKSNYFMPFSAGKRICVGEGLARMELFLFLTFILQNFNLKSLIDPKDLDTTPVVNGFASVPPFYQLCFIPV
# Chain of Cytochrome P450 3A4 (P08684 whole entry): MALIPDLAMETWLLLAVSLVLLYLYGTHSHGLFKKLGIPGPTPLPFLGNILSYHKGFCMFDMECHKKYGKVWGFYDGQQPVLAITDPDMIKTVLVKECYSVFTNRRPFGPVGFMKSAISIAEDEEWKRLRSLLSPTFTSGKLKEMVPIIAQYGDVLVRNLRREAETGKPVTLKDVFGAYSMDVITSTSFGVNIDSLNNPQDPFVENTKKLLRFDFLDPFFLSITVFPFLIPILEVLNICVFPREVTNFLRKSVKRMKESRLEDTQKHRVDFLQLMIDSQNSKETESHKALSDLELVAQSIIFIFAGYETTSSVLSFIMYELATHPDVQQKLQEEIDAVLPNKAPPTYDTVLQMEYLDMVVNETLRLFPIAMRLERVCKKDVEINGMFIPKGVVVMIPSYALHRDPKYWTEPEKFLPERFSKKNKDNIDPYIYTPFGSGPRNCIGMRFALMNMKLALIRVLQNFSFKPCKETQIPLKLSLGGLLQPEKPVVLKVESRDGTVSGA
smiles,measurement,setting,value
COc1ccc(S(=O)(=O)N(C)CC(=O)N2CCC(C(N)=O)CC2)cc1Cl,EC50,[1],> 260 µM (inactive)
COC(=O)c1cc(OC)c(OC)cc1N=C(S)N1CCCC1,EC50,[1],> 260 µM (inactive)
CCCCOC(=O)CCc1c(C)n[nH]c1C,EC50,[1],> 260 µM (inactive)
CC1(OC(=O)CCc2ccccc2)C(=O)C=C2C=C(C3CC3)OC=C2C1=O (configuration not stated),EC50,[2],36.6 µM (active)
same,EC50,[3],30.4 µM (active)
Cc1cnc(CNc2ncncc2-c2ccccc2C#N)cn1,AC50,Cytochrome P450 3A4,12.6 µM (inconclusive)
CN1CCN(C2=Cc3ccccc3Oc3ccc(Cl)cc32)CC1,AC50,Cytochrome P450 3A4,31.6 µM (inconclusive)
CNNCc1ccc(C(=O)NC(C)C)cc1 [PROCARBAZINE],AC50,Cytochrome P450 2C19; read-out: AC50,5.01 µM (inconclusive)
CCSC1=N/C(=C\c2ccccc2)C(=O)N1,EC50,[2],> 300 µM (not active)
same,EC50,[3],> 300 µM (not active)
CCN(Cc1ccccc1)S(=O)(=O)c1cc(C(=O)NCC2CCCCC2)ccc1OC,EC50,[1],> 260 µM (inactive)
CN1CCN(NC(=O)/C=C/c2ccc(Br)cc2)CC1,EC50,[1],32.3 µM (active)
COC(=O)CCN(C(=O)c1cc([N+](=O)[O-])cc([N+](=O)[O-])c1)c1ccccn1,EC50,[4],1.38 µM (active)
same,EC50,[5],> 30 µM (not active)
O=C(/C=C/c1ccc(Cl)cc1Cl)N(Cc1ccccc1)C1CCS(=O)(=O)C1 (configuration not stated),EC50,[1],> 260 µM (inactive)
Cc1cc(C)cc(NC(=O)CN(C)S(=O)(=O)c2c[nH]cn2)c1,EC50,[1],> 260 µM (inactive)
O=C1C2ON(c3ccccc3)C(c3ccncc3)C2C(=O)N1c1ccccc1 (configuration not stated),AC50,Cytochrome P450 2C19; read-out: AC50,0.0708 µM (inconclusive)
Clc1ccc(CCNc2nc3ccccc3n3nnnc23)cc1,EC50,[1],> 260 µM (inactive)
COc1ccc(NC(=O)C2CC(=O)N=C(Nc3cccc(C)c3)N2)cc1 (configuration not stated),EC50,[1],> 260 µM (inactive)
Cc1ccnc(SCC(=O)c2ccc(Br)cc2)c1C#N,EC50,[4],0.932 µM (active)
same,EC50,[5],> 30 µM (not active)
CC(C)COc1ccc(/C=C2/Sc3ccccc3C2=O)cc1,EC50,[2],> 300 µM (not active)
same,EC50,[3],> 300 µM (not active)
O=S(=O)([N-]c1nc2ccccc2nc1-[n+]1ccc(CCCc2ccccc2)cc1)c1cccs1,EC50,[2],35.4 µM (active)
same,EC50,[3],34 µM (active)
CC1(C)S[C@@H]2[C@H](NC(=O)Cc3ccccc3)C(=O)N2[C@H]1C(=O)O [PENICILLIN G],EC50,[6],< 0.06 µM (active)
same,EC50,Streptococcus,< 0.06 µM (active)
O=C(NNc1cccc(Cl)n1)Nc1ccccc1Cl,AC50,Cytochrome P450 2C19; read-out: AC50,6.31 µM (inconclusive)
S=C1NC2(CCS1)Oc1ccccc1C1CC(c3ccccc3)=NN12 (configuration not stated),EC50,[2],> 300 µM (not active)
same,EC50,[3],> 300 µM (not active)
CCCC(Oc1ccc(Br)cc1)c1nc2c3cc(OC)c(OC)cc3nc(S)n2n1 (configuration not stated),EC50,[6],0.253 µM (active)
same,EC50,Streptococcus,3.62 µM (active)
COCCN1Cc2cccc(C(=O)Nc3cc(OC)ccc3OC)c2C1=O,EC50,[7],> 53 µM (inactive)
O=C(CCN1C(=O)c2ccccc2C1=O)C1=NN[C@@H]2C(=O)N(c3ccc(F)cc3)C(=O)[C@H]12,EC50,[1],> 260 µM (inactive)
Cc1cc(/C=C2\C(=O)NC(=O)N(c3ccc(F)cc3)C2=O)c(C)n1-c1cccc(C(=O)O)c1,EC50,[2],> 300 µM (not active)
same,EC50,[3],> 300 µM (not active)
Cn1c(CN2CCCC2)nc2cc(NC(=O)C3CCCCC3)ccc21,AC50,Cytochrome P450 2C19,inconclusive
Cc1cc(C)cc(N2C(=O)NC(=O)/C(=C\c3cc(C)n(C)c3C)C2=O)c1,EC50,[2],6.75 µM (active)
same,EC50,[3],23.5 µM (active)
N#Cc1cc(NC(=O)c2ccc(F)cc2)c(O)n2c1nc1ccccc12,EC50,[2],21.7 µM (inconclusive)
same,EC50,[3],35 µM (active)
CCOC(=O)C1CCCN(C2CCN(Cc3nc(-c4ccccc4)no3)CC2)C1 (configuration not stated),EC50,[4],0.524 µM (active)
same,EC50,[5],> 60 µM (not active)
O=C(NC1C2CC3CC(C2)CC1C3)C1CC1 (configuration not stated),EC50,[1],> 260 µM (inactive)
Cc1ccccc1NC(=O)C1CCCN(C(=O)NCc2ccccc2)C1 (configuration not stated),EC50,[1],> 260 µM (inactive)
Cc1ccsc1C(=O)C1CCCN(Cc2cnc(N(C)C)s2)C1 (configuration not stated),EC50,[4],0.203 µM (active)
same,EC50,[5],> 60 µM (not active)
Cc1cccc(NC(=O)C(C)N2C(=O)C3C4CC(C(Br)C4Br)C3C2=O)c1 (configuration not stated),EC50,[7],9.65 µM (active)
Cc1nc(NCCc2c[nH]cn2)c2oc3ccccc3c2n1,EC50,[4],0.305 µM (active)
same,EC50,[5],> 60 µM (not active)
O=C(CN1CCN(c2cccc(Cl)c2)CC1)Nc1ccc([N+](=O)[O-])cc1C(=O)Nc1ccccc1F,EC50,[4],1.01 µM (active)
same,EC50,[5],> 60 µM (not active)
COc1ccc(-c2nn(-c3ccccc3)cc2CNC(=O)c2cccc([N+](=O)[O-])c2)cc1,EC50,[4],1.75 µM (active)
same,EC50,[5],> 60 µM (not active)
CC(C)(C)NC(=O)c1ccc2c(c1)N(CC(=O)N1CCCCC1)C(=O)C(C)(C)O2,EC50,[1],> 260 µM (inactive)
CN(C)c1ncc2nc(-c3ccccc3)c(=O)n(C3CC3)c2n1,AC50,Cytochrome P450 2C19; read-out: AC50,39.8 µM (inconclusive)
Oc1nc2cc3c(cc2cc1C(c1nnnn1C1CCCC1)N1CCCc2ccccc21)OCCO3 (configuration not stated),EC50,[7],> 53 µM (inactive)
COc1ccc2cc(/C(C)=N/NC(=S)Nc3cc(S(=O)(=O)N4CCOCC4)ccc3N3CCOCC3)ccc2c1,EC50,[4],0.572 µM (active)
same,EC50,[5],> 60 µM (not active)
COc1cc2oc3ccc(C#Cc4ccc(N)cc4)cc3c(=O)c2cc1OC,EC50,[6],1.18 µM (active)
same,EC50,Streptococcus,1.75 µM (active)
COc1ccc(C2C(C#N)=C(/N=C/N3CCN(C)CC3)OC3=C2C(=O)CC(C)(C)C3)cc1 (configuration not stated),EC50,[2],> 300 µM (not active)
same,EC50,[3],> 300 µM (not active)
Cc1ccc(OCCOCCN2CCCC2)c(Br)c1,EC50,[4],0.96 µM (active)
same,EC50,[5],> 30 µM (not active)
CC1=CC(C)(C)N(C(=O)CSc2nnc(N)s2)c2ccccc21,EC50,[7],> 53 µM (inactive)
COc1ccc(/C=N/N=C2/CC(C)(C)Cc3nnc(O)cc32)cc1,EC50,[2],41.4 µM (active)
same,EC50,[3],38.1 µM (active)
O=C(NC1CCCC1)C(c1ccncc1)N(Cc1ccccc1)C(=O)c1ccc(-c2ccccc2)[nH]1 (configuration not stated),EC50,[4],0.253 µM (active)
same,EC50,[5],> 60 µM (not active)
CCCc1nnc(SCC(=O)N2CCCCC2C)n1CC1CCCO1 (configuration not stated),AC50,Cytochrome P450 2C19; read-out: AC50,25.1 µM (inconclusive)
CCCCc1nnc(NC(=O)C(C)Sc2nc(C)cc(O)n2)s1 (configuration not stated),EC50,[1],> 260 µM (inactive)
